From patent publication US20260242338A1, “CRYSTALS OF N[…]” (KYOTO DRUG DISCOVERY & DEVELOPMENT CO., LTD., priority 2022, published 2026)
Like-named read-outs stand apart in the source and are kept apart here.

Type: physicochemical
Description: X-ray powder diffraction data were acquired using PhotonMax high-flux 9 KW rotating cathode X-ray generator (SmartLab 9 KW, Rigaku). All diffractograms were acquired using copper radiation (CuKα, 45 kV/200 mA, λ=1.5418 Å) and using KB filter to reduce unneeded radiation. The measurement was carried out by placing the sample gently crushed in an agate mortar on a measurement stand and then scanning the sample under 2θscanning conditions with a scanning range of 3° to 40°, a scanning speed of 20°/min, and a step size of 0.02°.
X-ray powder diffraction data were acquired using a diffractometer (MiniFlex 600, Rigaku). All diffractograms were acquired using copper radiation (CuKα, 40 kV/15 mA, λ=1.5418 Å) and using KB filter to reduce unneeded radiation. Scanning was carried out in 2θ with a scanning range of 5° to 50°, a scanning speed of 5°/min, and a step size of 0.02°.
The water content was measured using a coulometric moisture meter (CA-100, Nitto Seiko Analytech), using about 0.5 g of the solid sample, Aquamicron GEX as the solvent, and 3 mg of Aquamicron SS as a titrant.
The water content was measured using a Karl Fischer moisture meter (AQUACOUNTER AQV-2100, HIRANUMA) equipped with an electrolytic bath stirrer for iodine generation and a constant current potentiometer, using about 0.2 g of the solid sample, Aquamicron GEX as the solvent, and 3 mg of Aquamicron SS-Z as a titrant.
The crystal of KUS121 dihydrate was subjected to a normal storage stability test (25° C./60% RH, 18 months) and a storage stability test under accelerated test condition (40° C./75% RH, 6 months). For comparison, the crystal of KUS121 anhydride was also subjected to storage stability tests under accelerated test condition (40° C./75% RH, 6 months) and under ambient temperature condition (30 months).

[1] = 40° C./75% RH (6 months), dihydrate

| Structure (SMILES) | Content (40° C./75% RH (6 months)) | Purity test (40° C./75% RH (6 months)) | Water content (40° C./75% RH (6 months)) | Water content (Ambient temperature (30 months)) | Content (Initial) | Purity test (Initial) | Water content (Initial) | Content (25° C./60% RH (18 months)) | Related substance (25° C./60% RH (18 months)) | Water content (25° C./60% RH (18 months)) | Related substance (40° C./75% RH (6 months)) | Content [1] | Water content [1] | Related substance (Initial) | Content (Initial, dihydrate) | Water content (Initial, dihydrate) | Storage stability (overall statement) (compared with other hydrate crystals, accelerated test condition) |
| --- | --- | --- | --- | --- | --- | --- | --- | --- | --- | --- | --- | --- | --- | --- | --- | --- | --- |
| Cc1cc(F)ccc1-c1ccc(/N=N/c2cc(S(=O)(=O)[O-])c3ccccc3c2N)cn1.[Na+] [Crystal of KUS121 anhydride, Sodium 4-amino-3-[6-(4-fluoro-2-methylphenyl)pyridin-3-ylazo]naphthalene-1-sulfonate] | 100.8% | 99.5% | 3.0% | 9.1% | 98.2% | 99.5% | 0.8% | – | – | – | – | – | – | – | – | – | – |
| Cc1cc(F)ccc1-c1ccc(/N=N/c2cc(S(=O)(=O)[O-])c3ccccc3c2N)cn1.[Na+] [Crystal of KUS121 dihydrate, sodium 4-amino-3-[6-(4-fluoro-2-methylphenyl)pyridin-3-ylazo]naphthalene-1-sulfonate dihydrate] | – | – | – | – | – | – | – | 99.6% | 0.11% | 7.4% | 0.09% | 99.6% | 7.4% | 0.07% | 99.7% | 7.4% | had better storage stability than other hydrate crystals, and was extremely stable even under accelerated test condition |
